Tests used:
[1] = tested on: Blumeria graminis f.sp. tritici (ERYSGT); assay: foliar fungicide test on wheat (Example 19); type: in vivo; settings: 100 ppm foliar (Prot) application on wheat; inoculated 6 hours or one day after application
[2] = tested on: two-spotted spider mites (Tetranychus urticae); settings: liquid composition containing 500 ppm by weight of compound
Protocol: (§1) The activities of individual compounds of formula (I) were determined using a variety of pests. The pests were treated with a liquid composition containing 500 parts per million (ppm) by weight of a compound of formula (I). Each composition was made by dissolving the compound in an acetone and ethanol (50:50 by volume) mixture and diluting the solution with water containing 0.05% by volume of a wetting agent, SYNPERONIC NP8, until the liquid composition contained the required concentration of the compound.
(§2) The test procedure adopted with regard to each pest was essentially the same and comprised supporting a number of the pests on a medium, which was usually a substrate, a host plant or a foodstuff on which the pests feed, and treating either or both the medium and the pests with a composition. Pest mortality was assessed usually between two and five days after treatment.
(§3) Similar tests were conducted against, independently, two-spotted spider mites (Tetranychus urticae), fruit flies (Drosophila melanogaster), tobacco budworms (Heliothis virescens), diamond back moth (Plutella xylostella) and corn root worm (Diabrotica balteata).

[3] = tested on: peach potato aphids (Myzus persicae); settings: 500 ppm by weight; infested Chinese cabbage leaves sprayed; mortality assessed after three days
Protocol: This Example illustrates the pesticidal/insecticidal properties of compounds of formula (I). The activities of individual compounds of formula (I) were determined using a variety of pests. The pests were treated with a liquid composition containing 500 parts per million (ppm) by weight of a compound of formula (I). Each composition was made by dissolving the compound in an acetone and ethanol (50:50 by volume) mixture and diluting the solution with water containing 0.05% by volume of a wetting agent, SYNPERONIC NP8, until the liquid composition contained the required concentration of the compound.
as §2
In each test against peach potato aphids (Myzus persicae), Chinese cabbage leaves were infested with aphids, the infested leaves were sprayed with a test composition and pest mortality was assessed after three days.

[4] = tested on: Plasmopara viticola (PLASVI); assay: foliar fungicide test on vines (Example 19); type: in vivo; settings: 100 ppm foliar (Prot) application on vines; inoculated 6 hours or one day after application
[5] = tested on: Puccinia recondita (PUCCRT); assay: foliar fungicide test on wheat (Example 19); type: in vivo; settings: 100 ppm foliar (Prot) application on wheat; inoculated 6 hours or one day after application
[6] = tested on: corn root worm (Diabrotica balteata); assay: pesticidal test against corn root worm; settings: liquid composition containing 500 ppm by weight of compound
Protocol: as §1, §2, §3

[7] = tested on: diamond back moth (Plutella xylostella); assay: pesticidal test against diamond back moth; settings: liquid composition containing 500 ppm by weight of compound
Protocol: as §1, §2, §3

[8] = tested on: fruit flies (Drosophila melanogaster); assay: pesticidal test against fruit flies; settings: liquid composition containing 500 ppm by weight of compound
Protocol: as §1, §2, §3

Row | SMILES | melting point [°C] | ERYSGT Prot, PRCO (Percentage Reduction from Control) [1] | mortality (score) Tu [2] | mortality (score) Mp [3] | PLASVI Prot, PRCO (Percentage Reduction from Control) [4] | PUCCRT Prot, PRCO (Percentage Reduction from Control) [5] | mortality (score) Db [6] | mortality (score) Px [7] | mortality (score) Dm [8]
1 | Cc1nsc(NC(=O)Cc2ccc3oc(CC(C)(C)C)nc3c2)c1Cl | 144 to 145 |  |  |  |  |  |  |  | 
2 | Cc1nsc(NC(=O)C(F)c2ccc3oc(CC(C)(C)C)nc3c2)c1Cl (centres unmarked) [Table 5 Compound 7] |  | 100 | 9 (9 indicates 80-100% mortality) | 9 (9 indicates 80-100% mortality) | 98 | 96 |  |  | 
3 | Cc1nsc(NC(=O)C(=CO)c2ccc3oc(CC(C)(C)C)nc3c2)c1Cl [Table 12 Compound 7] |  | 78 | 9 (9 indicates 80-100% mortality) | 0 (represents less than 40% mortality) | 100 | 97 | 9 (9 indicates 80-100% mortality) | 9 (9 indicates 80-100% mortality) | 0 (represents less than 40% mortality)

Reference: patent US6703347B2, “Isothiazole derivatives and their use as pesticides” (Syngenta Limited, priority 2000, dated 2004)
